How the values were obtained:
Leukotriene C4 synthase = molecular target: T1, Leukotriene C4 synthase (Cavia porcellus, UniProt A6XA80); type: tissue-based, Lung;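 further: enzyme inhibition assay of leukotriene C4 synthase, using LTA4 as the substrate; in other assays of this panel Not Active means under 50% inhibition at 10 µM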
T1 sequence (A6XA80 whole entry): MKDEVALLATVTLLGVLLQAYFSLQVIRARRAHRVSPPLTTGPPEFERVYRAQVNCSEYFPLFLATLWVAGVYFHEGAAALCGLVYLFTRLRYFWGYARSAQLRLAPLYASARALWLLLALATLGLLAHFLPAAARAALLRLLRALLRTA

[1] = DRUGMATRIX: Interleukin IL-1 radioligand binding (ligand: [125I] interleukin 1beta); type: cell membranes, Membrane; settings: nih3t3; Not Active = under 50% inhibition at 10 µM
Substance-K receptor = molecular target: T2, Substance-K receptor (Homo sapiens, UniProt P21452); type: cell membranes, CHO, Membrane; further: in other assays of this panel Not Active means under 50% inhibition at 10 µM
T2 sequence (P21452 whole entry): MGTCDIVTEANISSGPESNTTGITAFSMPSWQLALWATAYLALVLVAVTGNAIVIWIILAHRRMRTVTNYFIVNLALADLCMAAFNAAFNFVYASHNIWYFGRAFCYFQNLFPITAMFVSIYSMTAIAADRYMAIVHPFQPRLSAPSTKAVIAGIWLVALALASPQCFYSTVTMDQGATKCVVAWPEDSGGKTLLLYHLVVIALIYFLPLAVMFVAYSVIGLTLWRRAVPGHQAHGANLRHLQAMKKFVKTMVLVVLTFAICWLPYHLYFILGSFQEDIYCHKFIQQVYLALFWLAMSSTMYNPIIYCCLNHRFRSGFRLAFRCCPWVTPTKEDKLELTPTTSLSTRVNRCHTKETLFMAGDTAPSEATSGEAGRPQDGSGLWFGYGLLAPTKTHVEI

[2] = DRUGMATRIX: Phosphodiesterase PDE4 enzyme inhibition (substrate: [3H]cAMP + cAMP); settings: u-937; Not Active = under 50% inhibition at 10 µM
[3] = DRUGMATRIX: Sigma2 radioligand binding (ligand: [3H] Ifenprodil); type: cell membranes, Rattus norvegicus, Wistar, Brain, Membrane; settings: Not Active = under 50% inhibition at 10 µM
[4] = DRUGMATRIX: Glutamate, NMDA, Agonism radioligand binding (ligand: [3H] CGP-39653); type: cell membranes, Rattus norvegicus, Wistar, Cerebral cortex, Membrane; settings: Not Active = under 50% inhibition at 10 µM
Mu-type opioid receptor = Mu-type opioid receptor (Homo sapiens, UniProt P35372); experiment: DRUGMATRIX: Opiate mu (OP3, MOP) radioligand binding (ligand: [3H] Diprenorphine); type: cell membranes, CHO-K1, Membrane; settings: cho-k1; Not Active = under 50% inhibition at 10 µM
Sequence of Mu-type opioid receptor (P35372 whole entry): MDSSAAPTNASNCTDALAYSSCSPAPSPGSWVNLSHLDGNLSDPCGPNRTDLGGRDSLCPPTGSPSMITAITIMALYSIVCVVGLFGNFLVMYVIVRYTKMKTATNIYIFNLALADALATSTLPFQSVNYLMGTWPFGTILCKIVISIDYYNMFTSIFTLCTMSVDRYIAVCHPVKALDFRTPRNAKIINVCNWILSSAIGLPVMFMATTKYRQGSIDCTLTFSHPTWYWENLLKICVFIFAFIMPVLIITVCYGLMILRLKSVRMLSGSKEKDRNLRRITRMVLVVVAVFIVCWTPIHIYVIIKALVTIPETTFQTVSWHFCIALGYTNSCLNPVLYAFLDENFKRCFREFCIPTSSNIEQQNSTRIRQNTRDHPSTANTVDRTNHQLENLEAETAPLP

| Compound | IC50 (Leukotriene C4 synthase) | IC50 [1] | Ki [1] | IC50 (Substance-K receptor; cho) | IC50 [2] | Ki [2] | IC50 [3] | Ki [3] | IC50 [4] | Ki [4] | IC50 (Mu-type opioid receptor) | Ki (Leukotriene C4 synthase) | Ki (Substance-K receptor; cho) | IC50 (Substance-K receptor; read-out: IC50) [µM] | Ki (Substance-K receptor; read-out: Ki) [µM] | IC50 ([3]; read-out: IC50) [µM] | Ki ([3]; read-out: Ki) [µM] |
| --- | --- | --- | --- | --- | --- | --- | --- | --- | --- | --- | --- | --- | --- | --- | --- | --- | --- |
| CC(C)CN(C[C@@H](O)[C@H](Cc1ccccc1)NC(=O)O[C@H]1CCOC1)S(=O)(=O)c1ccc(N)cc1 | Not Active | Not Active | Not Active | Not Active | Not Active | Not Active | Not Active | Not Active | Not Active | Not Active | Not Active | – | – | – | – | – | – |
| c1ccc(Nc2ccc(Nc3ccccc3)cc2)cc1 | Not Active | Not Active | Not Active | Not Active | Not Active | Not Active | Not Active | Not Active | Not Active | Not Active | Not Active | – | – | – | – | – | – |
| COc1cc2c3cc1Oc1cc(ccc1O)C[C@@H]1c4c(cc(OC)c(O)c4Oc4ccc(cc4)C[C@@H]3N(C)CC2)CC[N+]1(C)C.[Cl-] | Not Active | Not Active | Not Active | Not Active | Not Active | Not Active | Not Active | Not Active | Not Active | Not Active | Not Active | – | – | – | – | – | – |
| NC(=O)N1c2ccccc2CCc2ccccc21 | Not Active | Not Active | Not Active | Not Active | Not Active | Not Active | Not Active | Not Active | Not Active | Not Active | Not Active | – | – | – | – | – | – |
| O=C1CC[C@@H](N2C(=O)c3ccccc3C2=O)C(=O)N1 | Not Active | Not Active | Not Active | Not Active | Not Active | Not Active | Not Active | Not Active | Not Active | Not Active | Not Active | – | – | – | – | – | – |
| Cc1onc(O)c1CC(N)C(=O)O (racemic) [(R,S)-AMPA] | Not Active | Not Active | Not Active | Not Active | Not Active | Not Active | Not Active | Not Active | Not Active | Not Active | Not Active | – | – | – | – | – | – |
| Cc1ccc2cc3c(ccc4ccccc43)c3c2c1CC3 [3-METHYLCHOLANTHRENE] | Not Active | Not Active | Not Active | Not Active | Not Active | Not Active | Not Active | Not Active | Not Active | Not Active | – | – | – | – | – | – | – |
| CC[C@@]1(O)C[C@H](O[C@H]2C[C@H](N(C)C)[C@H](O[C@H]3C[C@H](O)[C@H](O[C@H]4CCC(=O)[C@H](C)O4)[C@H](C)O3)[C@H](C)O2)c2c(cc3c(c2O)C(=O)c2c(O)cccc2C3=O)[C@H]1C(=O)OC [ACLARUBICIN] | Not Active | Not Active | Not Active | Not Active | Not Active | Not Active | Not Active | Not Active | Not Active | Not Active | Not Active | – | – | – | – | – | – |
| Nc1nc2c(ncn2COCCO)c(=O)[nH]1 [ACYCLOVIR] | Not Active | Not Active | Not Active | Not Active | Not Active | Not Active | Not Active | Not Active | Not Active | Not Active | Not Active | – | – | – | – | – | – |
| Cc1c(C)c2c(c(C)c1O)CC[C@@](C)(CCC[C@H](C)CCC[C@H](C)CCCC(C)C)O2 [ALPHA-TOCOPHEROL] | Not Active | Not Active | Not Active | Not Active | Not Active | Not Active | Not Active | Not Active | Not Active | Not Active | Not Active | – | – | – | – | – | – |
| CN(C)c1nc(N(C)C)nc(N(C)C)n1 [ALTRETAMINE] | Not Active | Not Active | Not Active | Not Active | Not Active | Not Active | Not Active | Not Active | Not Active | Not Active | Not Active | – | – | – | – | – | – |
| Nc1c(Br)cc(Br)cc1CN[C@H]1CC[C@H](O)CC1 [AMBROXOL] | Not Active | Not Active | Not Active | Not Active | Not Active | Not Active | Not Active | Not Active | Not Active | Not Active | Not Active | – | – | – | – | – | – |
| NCCCCCC(=O)O [AMINOCAPROIC ACID] | Not Active | Not Active | Not Active | Not Active | Not Active | Not Active | Not Active | Not Active | Not Active | Not Active | Not Active | – | – | – | – | – | – |
| CCC1(c2ccc(N)cc2)CCC(=O)NC1=O (centres undefined) [AMINOGLUTETHIMIDE] | Not Active | Not Active | Not Active | Not Active | Not Active | Not Active | Not Active | Not Active | Not Active | Not Active | Not Active | – | – | – | – | – | – |
| Cc1ccc(/N=C/N(C)/C=N/c2ccc(C)cc2C)c(C)c1 [AMITRAZ] | Not Active | Not Active | Not Active | Not Active | Not Active | Not Active | Not Active | Not Active | Not Active | Not Active | – | – | – | – | – | – | – |
| CCOC(=O)C1=C(COCCN)NC(C)=C(C(=O)OC)C1c1ccccc1Cl (centres undefined) [AMLODIPINE] | Not Active | Not Active | Not Active | Not Active | Not Active | Not Active | Not Active | Not Active | Not Active | Not Active | Not Active | – | – | – | – | – | – |
| COc1ccc(C[C@H]2NC[C@H](O)[C@H]2OC(C)=O)cc1 [ANISOMYCIN] | Not Active | Not Active | Not Active | Not Active | Not Active | Not Active | Not Active | Not Active | Not Active | Not Active | – | Not Active | Not Active | – | – | – | – |
| Nc1ncn([C@@H]2O[C@H](CO)[C@@H](O)[C@H]2O)c(=O)n1 [AZACITIDINE] | Not Active | Not Active | Not Active | Not Active | Not Active | Not Active | Not Active | Not Active | Not Active | Not Active | Not Active | – | – | – | – | – | – |
| O=C(O)CCCc1ccc(N(CCCl)CCCl)cc1 [CHLORAMBUCIL] | Not Active | Not Active | Not Active | Not Active | Not Active | Not Active | Not Active | Not Active | Not Active | Not Active | – | – | – | – | – | – | – |
| CN(C)CCCN1c2ccccc2Sc2ccc(Cl)cc21 [CHLORPROMAZINE] | Not Active | Not Active | Not Active | – | Not Active | Not Active | – | – | Not Active | Not Active | – | – | – | 27.2 | 9.07 | 2.72 | 1.67 |
| CC1=C2C(=CO[C@H](C)[C@H]2C)C(O)=C(C(=O)O)C1=O [CITRININ] | Not Active | Not Active | Not Active | Not Active | Not Active | Not Active | Not Active | Not Active | Not Active | Not Active | – | – | – | – | – | – | – |
| CC(C)(C)NCC(O)c1cc(Cl)c(N)c(Cl)c1 (centres undefined) [CLENBUTEROL] | Not Active | Not Active | Not Active | Not Active | Not Active | Not Active | Not Active | Not Active | Not Active | Not Active | – | – | – | – | – | – | – |
| CADMIUM ACETATE | Not Active | Not Active | Not Active | Not Active | Not Active | Not Active | Not Active | Not Active | Not Active | Not Active | – | Not Active | Not Active | – | – | – | – |
| LEAD (II) ACETATE | Not Active | Not Active | Not Active | Not Active | Not Active | Not Active | Not Active | Not Active | Not Active | Not Active | – | Not Active | Not Active | – | – | – | – |
| LIPOPOLYSACCHARIDE E. COLI O55:B5 | Not Active | Not Active | Not Active | Not Active | Not Active | Not Active | Not Active | Not Active | Not Active | Not Active | – | Not Active | Not Active | – | – | – | – |

Reference: ChEMBL document CHEMBL1909046, “DrugMatrix in vitro pharmacology data”
